From article PMC12406203 (Journal of Medicinal Chemistry, 2025)

What was measured:
Experiment in all cases: KINOMEscan
Format in all cases: binding
NLK = biological target: T1, NLK (Homo sapiens, UniProt Q9UBE8)
T1 construct: purchased Eurofins DiscoverX, LLC; host or cells: E. coli (BL21-derived, T7 phage) or HEK-293
T1 sequence (Q9UBE8 1-527): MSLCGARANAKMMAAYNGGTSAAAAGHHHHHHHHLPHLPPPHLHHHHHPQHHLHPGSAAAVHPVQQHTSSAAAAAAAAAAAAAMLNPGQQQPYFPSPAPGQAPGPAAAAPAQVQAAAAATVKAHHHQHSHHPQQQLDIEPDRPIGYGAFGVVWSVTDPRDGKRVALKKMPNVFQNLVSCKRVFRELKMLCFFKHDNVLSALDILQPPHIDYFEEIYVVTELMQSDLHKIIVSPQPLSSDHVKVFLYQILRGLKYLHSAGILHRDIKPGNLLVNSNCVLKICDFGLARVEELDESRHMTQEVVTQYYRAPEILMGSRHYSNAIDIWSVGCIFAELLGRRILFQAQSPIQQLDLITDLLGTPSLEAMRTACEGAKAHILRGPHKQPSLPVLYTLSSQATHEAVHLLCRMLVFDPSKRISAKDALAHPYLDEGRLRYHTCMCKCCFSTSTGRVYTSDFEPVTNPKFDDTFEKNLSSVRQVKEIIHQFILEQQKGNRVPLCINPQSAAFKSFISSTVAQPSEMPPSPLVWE

ERBB2 = biological target: T2, ERBB2 (Homo sapiens, UniProt P04626)
T2 construct: purchased Eurofins DiscoverX, LLC; host or cells: E. coli (T7 phage) or HEK-293
T2 sequence (P04626 23-1255): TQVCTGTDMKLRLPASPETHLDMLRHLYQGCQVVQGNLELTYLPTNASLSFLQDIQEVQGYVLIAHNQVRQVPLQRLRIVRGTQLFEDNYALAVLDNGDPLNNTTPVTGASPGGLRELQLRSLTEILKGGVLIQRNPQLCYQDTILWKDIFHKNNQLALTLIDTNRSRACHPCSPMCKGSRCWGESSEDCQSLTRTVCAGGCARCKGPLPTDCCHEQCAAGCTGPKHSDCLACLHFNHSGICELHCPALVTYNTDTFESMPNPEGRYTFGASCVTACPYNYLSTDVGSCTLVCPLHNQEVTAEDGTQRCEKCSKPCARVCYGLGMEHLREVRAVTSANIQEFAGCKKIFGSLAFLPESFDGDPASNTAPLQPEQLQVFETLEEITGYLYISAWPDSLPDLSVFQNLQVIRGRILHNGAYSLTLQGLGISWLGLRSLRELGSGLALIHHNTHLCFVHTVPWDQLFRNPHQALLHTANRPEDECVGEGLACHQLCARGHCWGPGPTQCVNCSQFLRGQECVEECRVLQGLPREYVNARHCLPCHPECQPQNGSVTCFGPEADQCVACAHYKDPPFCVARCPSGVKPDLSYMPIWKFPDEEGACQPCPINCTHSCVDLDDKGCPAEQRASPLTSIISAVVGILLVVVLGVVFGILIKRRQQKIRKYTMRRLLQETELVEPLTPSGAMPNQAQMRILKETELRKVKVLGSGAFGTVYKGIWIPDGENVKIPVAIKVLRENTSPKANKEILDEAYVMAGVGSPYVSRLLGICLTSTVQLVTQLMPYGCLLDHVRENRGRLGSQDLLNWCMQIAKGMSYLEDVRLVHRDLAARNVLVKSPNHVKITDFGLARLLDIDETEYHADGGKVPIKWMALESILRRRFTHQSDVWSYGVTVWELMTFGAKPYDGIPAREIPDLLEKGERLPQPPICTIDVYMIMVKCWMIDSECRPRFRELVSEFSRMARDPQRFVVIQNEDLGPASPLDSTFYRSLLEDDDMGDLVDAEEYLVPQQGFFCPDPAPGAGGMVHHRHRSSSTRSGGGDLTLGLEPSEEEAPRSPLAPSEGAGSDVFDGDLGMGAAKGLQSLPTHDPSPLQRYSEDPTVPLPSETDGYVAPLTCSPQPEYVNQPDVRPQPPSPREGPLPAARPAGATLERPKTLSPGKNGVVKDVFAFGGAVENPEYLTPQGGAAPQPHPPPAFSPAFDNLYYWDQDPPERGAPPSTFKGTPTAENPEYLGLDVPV

p38α = biological target: T3, p38α (Homo sapiens, UniProt Q16539)
T3 construct: purchased Eurofins DiscoverX, LLC; host or cells: E. coli (BL21-derived, T7 phage) or HEK-293
T3 sequence (Q16539 whole entry): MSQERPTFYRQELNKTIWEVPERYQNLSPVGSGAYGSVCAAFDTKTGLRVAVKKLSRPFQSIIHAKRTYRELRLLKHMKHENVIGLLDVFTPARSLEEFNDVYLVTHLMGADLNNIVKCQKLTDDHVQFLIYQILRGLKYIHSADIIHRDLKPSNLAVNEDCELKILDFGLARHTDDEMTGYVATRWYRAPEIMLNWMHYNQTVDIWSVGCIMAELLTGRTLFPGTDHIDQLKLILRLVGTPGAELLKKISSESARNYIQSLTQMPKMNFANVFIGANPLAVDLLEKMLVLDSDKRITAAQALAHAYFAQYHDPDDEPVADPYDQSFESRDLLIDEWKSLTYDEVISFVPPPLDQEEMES

[1] = biological target: T4, ABL1(T315I)-phosphorylated (Homo sapiens, UniProt P00519, T315I)
T4 construct: purchased Eurofins DiscoverX, LLC; host or cells: E. coli BL21-derived (T7 phage) or HEK-293

[2] = biological target: T5, JAK2(JH1domain-catalytic) (Homo sapiens, UniProt O60674)
T5 construct: JAK2(JH1domain-; purchased Eurofins DiscoverX, LLC; host or cells: E. coli (T7 phage) or HEK-293
T5 sequence (O60674 849-1124 limits assumed): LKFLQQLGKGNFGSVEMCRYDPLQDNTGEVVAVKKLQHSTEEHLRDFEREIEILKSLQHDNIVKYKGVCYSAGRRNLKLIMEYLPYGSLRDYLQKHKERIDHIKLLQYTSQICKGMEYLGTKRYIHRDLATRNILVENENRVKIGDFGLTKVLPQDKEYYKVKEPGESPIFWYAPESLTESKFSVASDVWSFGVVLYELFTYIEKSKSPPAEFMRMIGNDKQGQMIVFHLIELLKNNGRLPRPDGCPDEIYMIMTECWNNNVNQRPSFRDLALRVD

AXL = biological target: T6, AXL (Homo sapiens, UniProt P30530)
T6 construct: purchased Eurofins DiscoverX, LLC; host or cells: E. coli BL21-derived (T7 phage) or HEK-293
T6 sequence (P30530 26-894): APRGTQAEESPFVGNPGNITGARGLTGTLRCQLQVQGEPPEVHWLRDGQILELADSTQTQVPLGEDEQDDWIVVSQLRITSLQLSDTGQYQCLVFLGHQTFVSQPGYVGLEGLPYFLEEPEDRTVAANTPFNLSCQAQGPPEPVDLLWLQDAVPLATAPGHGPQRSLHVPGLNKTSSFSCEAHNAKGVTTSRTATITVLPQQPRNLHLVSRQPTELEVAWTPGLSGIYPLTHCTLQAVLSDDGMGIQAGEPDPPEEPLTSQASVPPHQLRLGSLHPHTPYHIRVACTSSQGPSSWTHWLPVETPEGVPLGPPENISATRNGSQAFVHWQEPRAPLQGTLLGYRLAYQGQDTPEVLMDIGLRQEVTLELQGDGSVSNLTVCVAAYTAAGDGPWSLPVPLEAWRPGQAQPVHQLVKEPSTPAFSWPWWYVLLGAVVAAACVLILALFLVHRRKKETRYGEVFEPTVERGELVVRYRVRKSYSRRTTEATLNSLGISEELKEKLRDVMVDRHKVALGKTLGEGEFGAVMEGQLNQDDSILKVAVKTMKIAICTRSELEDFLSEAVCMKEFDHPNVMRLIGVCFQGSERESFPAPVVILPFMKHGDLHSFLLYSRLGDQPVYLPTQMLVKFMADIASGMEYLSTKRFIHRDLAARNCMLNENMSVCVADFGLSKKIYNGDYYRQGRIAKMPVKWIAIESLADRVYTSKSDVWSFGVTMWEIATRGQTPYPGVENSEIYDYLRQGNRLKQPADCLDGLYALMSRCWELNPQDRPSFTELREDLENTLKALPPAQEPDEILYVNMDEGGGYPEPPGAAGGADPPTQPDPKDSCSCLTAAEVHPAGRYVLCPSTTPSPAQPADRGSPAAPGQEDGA

PIK3C2B = biological target: T7, PIK3C2B (Homo sapiens, UniProt O00750)
T7 construct: purchased Eurofins DiscoverX, LLC; host or cells: E. coli BL21-derived host (T7 phage) or HEK-293
T7 sequence (O00750 whole entry): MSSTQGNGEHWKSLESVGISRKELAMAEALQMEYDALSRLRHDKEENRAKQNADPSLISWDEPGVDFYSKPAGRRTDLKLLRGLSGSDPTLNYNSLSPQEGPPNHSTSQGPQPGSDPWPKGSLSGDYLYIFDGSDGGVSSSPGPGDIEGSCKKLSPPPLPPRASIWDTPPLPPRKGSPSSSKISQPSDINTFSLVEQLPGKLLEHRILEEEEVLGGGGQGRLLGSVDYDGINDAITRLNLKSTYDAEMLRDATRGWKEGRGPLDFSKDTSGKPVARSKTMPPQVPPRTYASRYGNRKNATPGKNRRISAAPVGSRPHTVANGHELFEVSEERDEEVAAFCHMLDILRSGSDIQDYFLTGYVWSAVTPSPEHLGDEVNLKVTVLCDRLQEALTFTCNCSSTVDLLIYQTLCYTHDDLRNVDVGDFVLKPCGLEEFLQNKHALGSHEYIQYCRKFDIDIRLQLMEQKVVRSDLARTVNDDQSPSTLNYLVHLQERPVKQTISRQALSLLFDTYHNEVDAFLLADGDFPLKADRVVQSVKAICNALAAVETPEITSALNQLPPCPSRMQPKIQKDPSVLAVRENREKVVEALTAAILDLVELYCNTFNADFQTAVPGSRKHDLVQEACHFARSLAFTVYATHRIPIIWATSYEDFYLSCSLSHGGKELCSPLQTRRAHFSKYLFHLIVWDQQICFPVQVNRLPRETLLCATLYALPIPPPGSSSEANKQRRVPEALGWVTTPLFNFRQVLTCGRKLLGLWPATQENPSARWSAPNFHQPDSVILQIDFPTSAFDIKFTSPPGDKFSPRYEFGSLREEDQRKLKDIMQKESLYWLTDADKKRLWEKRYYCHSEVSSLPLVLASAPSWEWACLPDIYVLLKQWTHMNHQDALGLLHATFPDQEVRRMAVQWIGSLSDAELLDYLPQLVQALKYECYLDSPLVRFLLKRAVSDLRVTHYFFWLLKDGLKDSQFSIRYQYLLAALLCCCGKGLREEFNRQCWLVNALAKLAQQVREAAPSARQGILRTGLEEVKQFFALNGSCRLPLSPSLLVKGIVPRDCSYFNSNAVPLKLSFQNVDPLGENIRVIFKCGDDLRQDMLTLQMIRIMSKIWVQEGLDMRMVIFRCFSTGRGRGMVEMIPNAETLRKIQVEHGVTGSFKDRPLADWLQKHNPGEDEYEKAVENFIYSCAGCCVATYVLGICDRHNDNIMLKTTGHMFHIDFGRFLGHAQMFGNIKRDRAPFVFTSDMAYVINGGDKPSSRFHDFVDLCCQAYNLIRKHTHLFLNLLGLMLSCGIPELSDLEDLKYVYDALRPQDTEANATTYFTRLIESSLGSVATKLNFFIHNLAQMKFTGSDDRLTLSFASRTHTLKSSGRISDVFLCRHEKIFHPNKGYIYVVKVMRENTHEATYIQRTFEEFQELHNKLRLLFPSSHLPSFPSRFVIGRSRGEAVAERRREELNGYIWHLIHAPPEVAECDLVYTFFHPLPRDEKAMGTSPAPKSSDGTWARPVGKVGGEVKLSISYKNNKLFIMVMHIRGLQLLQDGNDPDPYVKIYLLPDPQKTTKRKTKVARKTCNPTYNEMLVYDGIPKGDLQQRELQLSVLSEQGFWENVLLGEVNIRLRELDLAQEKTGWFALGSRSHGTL

KIT(D816V) = biological target: T8, KIT(D816V) (Homo sapiens, UniProt P10721, D816V)
T8 construct: purchased Eurofins DiscoverX, LLC; host or cells: E. coli (BL21-derived, T7 phage) or HEK-293
T8 sequence (P10721 26-976 D816V): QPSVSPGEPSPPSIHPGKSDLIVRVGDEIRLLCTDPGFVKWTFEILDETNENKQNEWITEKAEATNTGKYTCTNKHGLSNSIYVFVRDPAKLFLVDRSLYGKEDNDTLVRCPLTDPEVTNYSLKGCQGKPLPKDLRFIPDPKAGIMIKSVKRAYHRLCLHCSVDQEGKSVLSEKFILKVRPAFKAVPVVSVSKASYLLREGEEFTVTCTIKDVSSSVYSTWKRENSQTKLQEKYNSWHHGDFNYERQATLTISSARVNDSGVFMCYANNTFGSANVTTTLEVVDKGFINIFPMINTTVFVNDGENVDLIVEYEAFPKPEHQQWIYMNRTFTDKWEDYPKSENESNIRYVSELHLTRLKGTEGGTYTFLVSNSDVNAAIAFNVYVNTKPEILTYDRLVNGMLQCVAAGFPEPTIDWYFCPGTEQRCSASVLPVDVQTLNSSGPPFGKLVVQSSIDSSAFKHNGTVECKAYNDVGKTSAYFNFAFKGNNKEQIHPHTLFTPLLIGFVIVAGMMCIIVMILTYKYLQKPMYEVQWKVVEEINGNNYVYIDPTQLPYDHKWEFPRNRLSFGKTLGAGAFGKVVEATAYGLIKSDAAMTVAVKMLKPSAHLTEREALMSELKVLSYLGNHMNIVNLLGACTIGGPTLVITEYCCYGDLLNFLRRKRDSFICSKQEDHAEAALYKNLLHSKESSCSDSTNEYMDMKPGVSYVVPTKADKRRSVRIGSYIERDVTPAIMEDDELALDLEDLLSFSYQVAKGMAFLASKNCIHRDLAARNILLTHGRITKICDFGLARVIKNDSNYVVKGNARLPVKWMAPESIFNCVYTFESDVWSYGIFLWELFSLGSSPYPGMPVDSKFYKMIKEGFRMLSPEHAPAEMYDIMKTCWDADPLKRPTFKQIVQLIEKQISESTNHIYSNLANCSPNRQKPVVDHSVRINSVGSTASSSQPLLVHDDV

PIM1 = biological target: T9, PIM1 (Homo sapiens, UniProt P11309)
T9 construct: purchased Eurofins DiscoverX, LLC; host or cells: E. coli BL21-derived host (T7 phage) or HEK-293
T9 sequence (P11309 whole entry): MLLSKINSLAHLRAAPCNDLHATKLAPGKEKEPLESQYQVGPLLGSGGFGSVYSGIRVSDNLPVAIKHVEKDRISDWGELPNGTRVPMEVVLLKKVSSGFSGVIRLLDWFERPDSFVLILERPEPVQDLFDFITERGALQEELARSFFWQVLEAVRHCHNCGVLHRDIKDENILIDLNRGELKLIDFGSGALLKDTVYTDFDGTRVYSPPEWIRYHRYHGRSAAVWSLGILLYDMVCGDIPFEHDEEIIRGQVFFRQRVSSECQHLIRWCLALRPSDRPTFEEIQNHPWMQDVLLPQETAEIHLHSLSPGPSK

Structure (SMILES)	RA @ 1000nM (NLK)	RA @ 10000nM (NLK)	RA @ 1000nM (ERBB2)	RA @ 10000nM (ERBB2)	RA @ 1000nM (p38α)	RA @ 10000nM (p38α)	RA @ 1000nM [1]	RA @ 10000nM [1]	RA @ 1000nM [2]	RA @ 10000nM [2]	RA @ 1000nM (AXL)	RA @ 10000nM (AXL)	RA @ 1000nM (PIK3C2B)	RA @ 10000nM (PIK3C2B)	RA @ 1000nM (KIT(D816V))	RA @ 10000nM (KIT(D816V))	RA @ 1000nM (PIM1)	RA @ 10000nM (PIM1)
CN(C)CCNC(=O)c1cc2c(cnn2CC2CCCCC2)cc1Cc1ccc(F)cc1F [Compound 95, 1-(Cyclohexylmethyl)-5-(2,4-difluorobenzyl)-N-(2-(dimethylamino)ethyl)-1H-indazole-6-carboxamide]	100%	100%	84%	78%	6.7%	0.1%	72%	91%	100%	100%	84%	83%	91%	91%	96%	94%	100%	94%
CC(C)Cn1ncc2cc(Cc3ccc(F)cc3F)c(C(=O)NCCN(C)C)cc21 [Compound 94, 5-(2,4-Difluorobenzyl)-N-(2-(dimethylamino)ethyl)-1-isobutyl-1H-indazole-6-carboxamide]	100%	98%	74%	81%	2.3%	0.4%	93%	90%	98%	100%	97%	89%	90%	82%	94%	100%	95%	100%
